pIC50: −log10 of the molar value. Counter-ions that a name gives are not always drawn. Like-named read-outs stand apart in the source and are kept apart here. Blank lines part the entries; values can stand above or below the compound they belong to.
Columns and labels:
[1] = target: T1, cross-linking of glycated bovine serum albumin (AGE-BSA) to the rat tail tendon collagen (Bos taurus, UniProt P02769); experiment: Inhibition of cross-linking of glycated BSA (AGE-BSA) to rat tail tendon collagen coated 96-well plate (ELISA); type: biochemical
T1 construct: glycated bovine serum albumin (AGE-BSA); from tissue; host or cells: collagen from rat tail tendon; BSA from bovine serum, glycated in house
T1 sequence (P02769 25-607): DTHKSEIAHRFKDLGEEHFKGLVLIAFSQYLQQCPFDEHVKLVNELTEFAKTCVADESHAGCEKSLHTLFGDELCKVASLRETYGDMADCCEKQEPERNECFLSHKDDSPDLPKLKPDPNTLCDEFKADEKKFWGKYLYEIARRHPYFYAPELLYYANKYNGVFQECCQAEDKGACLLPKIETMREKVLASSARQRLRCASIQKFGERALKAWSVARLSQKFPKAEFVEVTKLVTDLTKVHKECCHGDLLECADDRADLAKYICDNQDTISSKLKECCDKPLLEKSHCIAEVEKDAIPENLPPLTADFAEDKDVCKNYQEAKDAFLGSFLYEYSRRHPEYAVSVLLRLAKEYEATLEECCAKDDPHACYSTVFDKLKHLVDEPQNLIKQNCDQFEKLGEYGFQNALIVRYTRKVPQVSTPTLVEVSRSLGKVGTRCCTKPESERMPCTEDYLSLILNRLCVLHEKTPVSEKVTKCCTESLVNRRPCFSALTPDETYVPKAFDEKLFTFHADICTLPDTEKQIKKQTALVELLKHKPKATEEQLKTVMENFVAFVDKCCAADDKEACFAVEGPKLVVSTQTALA
Protocol: The cross-linked AGE-BSA to the tail tendon coated plate was then quantitated by the polyclonal antibody raised against AGE-RNase.
The % inhibition of each test compound was calculated as follows.

[2] = target: T2, AGE-BSA previously crosslinked to the collagen (Bos taurus, UniProt P02769); experiment: Sandwich enzyme immunoassay for breaking of AGE moieties from AGE-BSA crosslinked to collagen (AGE breaker assay); type: biochemical, bovine; rat; conditions: for IC50: AGE breaking, 16 hours 37° C.
T2 construct: Type V BSA (bovine serum albumin); purchased Calbiochem (BSA Type V); Collaborative Biomedical Products (Biocoat rat tail collagen type I plates)
T2 sequence (P02769 25-607): as above
T2 sequence (P02454 152-1207 partner limits assumed): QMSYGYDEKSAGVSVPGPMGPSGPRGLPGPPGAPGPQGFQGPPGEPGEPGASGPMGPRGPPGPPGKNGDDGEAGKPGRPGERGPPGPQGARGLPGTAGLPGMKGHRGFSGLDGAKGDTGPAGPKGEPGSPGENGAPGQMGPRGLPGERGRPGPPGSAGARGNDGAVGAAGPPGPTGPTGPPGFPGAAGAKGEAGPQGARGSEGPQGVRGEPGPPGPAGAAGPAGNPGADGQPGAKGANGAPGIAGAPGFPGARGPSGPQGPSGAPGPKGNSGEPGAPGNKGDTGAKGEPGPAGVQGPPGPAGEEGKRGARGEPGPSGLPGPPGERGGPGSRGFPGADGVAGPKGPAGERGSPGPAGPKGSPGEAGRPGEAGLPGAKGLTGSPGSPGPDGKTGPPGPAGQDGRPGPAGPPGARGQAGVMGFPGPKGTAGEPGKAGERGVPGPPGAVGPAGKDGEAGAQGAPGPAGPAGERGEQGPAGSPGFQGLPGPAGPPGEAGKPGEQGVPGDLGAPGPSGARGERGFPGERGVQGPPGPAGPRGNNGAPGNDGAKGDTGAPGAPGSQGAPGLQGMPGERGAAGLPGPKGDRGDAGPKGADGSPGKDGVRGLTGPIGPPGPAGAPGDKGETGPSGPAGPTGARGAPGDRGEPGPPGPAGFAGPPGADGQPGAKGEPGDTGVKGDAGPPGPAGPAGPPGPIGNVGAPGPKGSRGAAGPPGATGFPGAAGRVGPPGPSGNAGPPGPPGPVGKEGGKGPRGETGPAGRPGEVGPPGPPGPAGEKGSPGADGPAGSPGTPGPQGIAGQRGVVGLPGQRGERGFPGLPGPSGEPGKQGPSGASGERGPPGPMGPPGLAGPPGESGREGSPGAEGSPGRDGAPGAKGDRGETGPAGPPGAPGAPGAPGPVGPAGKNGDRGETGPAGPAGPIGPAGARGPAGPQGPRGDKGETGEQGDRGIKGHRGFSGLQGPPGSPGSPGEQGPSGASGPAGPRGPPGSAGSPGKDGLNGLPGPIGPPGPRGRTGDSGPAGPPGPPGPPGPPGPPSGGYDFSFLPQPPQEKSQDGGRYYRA
T2 sequence (P02466 86-1125 partner limits assumed): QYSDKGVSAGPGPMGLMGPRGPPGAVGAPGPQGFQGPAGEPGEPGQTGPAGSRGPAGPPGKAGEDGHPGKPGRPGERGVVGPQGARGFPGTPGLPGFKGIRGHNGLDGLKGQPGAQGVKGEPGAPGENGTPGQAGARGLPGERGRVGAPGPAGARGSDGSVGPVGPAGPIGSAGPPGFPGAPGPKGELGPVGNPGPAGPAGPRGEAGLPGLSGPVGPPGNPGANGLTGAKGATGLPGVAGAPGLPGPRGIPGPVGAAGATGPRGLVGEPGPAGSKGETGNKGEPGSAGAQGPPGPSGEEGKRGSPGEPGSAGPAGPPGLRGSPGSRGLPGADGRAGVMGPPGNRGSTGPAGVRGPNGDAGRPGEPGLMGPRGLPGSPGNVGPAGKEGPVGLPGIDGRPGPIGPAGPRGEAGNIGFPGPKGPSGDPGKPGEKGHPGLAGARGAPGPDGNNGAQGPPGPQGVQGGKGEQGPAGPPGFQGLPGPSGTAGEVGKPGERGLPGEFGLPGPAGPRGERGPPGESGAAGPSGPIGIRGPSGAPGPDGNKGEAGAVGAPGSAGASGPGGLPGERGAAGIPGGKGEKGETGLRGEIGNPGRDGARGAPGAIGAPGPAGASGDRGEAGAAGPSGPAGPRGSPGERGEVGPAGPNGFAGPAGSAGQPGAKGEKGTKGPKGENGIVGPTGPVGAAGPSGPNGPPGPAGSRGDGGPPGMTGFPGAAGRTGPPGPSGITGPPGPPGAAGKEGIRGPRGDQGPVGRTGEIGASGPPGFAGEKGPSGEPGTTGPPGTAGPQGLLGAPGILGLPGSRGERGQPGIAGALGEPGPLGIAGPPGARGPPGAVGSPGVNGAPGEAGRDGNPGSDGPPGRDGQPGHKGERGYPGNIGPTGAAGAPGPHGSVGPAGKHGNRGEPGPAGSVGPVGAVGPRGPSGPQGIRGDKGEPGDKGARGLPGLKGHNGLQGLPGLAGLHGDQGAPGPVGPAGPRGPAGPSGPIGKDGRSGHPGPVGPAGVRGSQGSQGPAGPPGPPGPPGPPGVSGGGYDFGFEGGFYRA
Protocol: The present invention also involves a novel sandwich enzyme immunoassay used to ascertain the ability of test compounds to “break” or reverse already formed advanced glycosylation endproducts by detecting the breaking of AGE (Advanced glycosylation endproduct) moieties from AGE-crosslinked protein. This assay comprises:
a) incubation of AGE-modified bovine serum albumin (AGE-BSA) on collagen-coated wells of microtiter plates for a period of 2-6 hours at a temperature of 37° C.;
b) washing of the wells with PBS-Tween;
c) application of the test compounds to the washed wells of step b;
d) incubation of the test compounds applied to the washed wells for an additional 12-24 hours at a temperature of about 37° C.; and
e) detection of the AGE-breaking using an antibody raised against AGE-ribonuclease or cross-link breaking with an antibody against BSA.
In order to ascertain the ability of the compounds of the instant invention to “break” or reverse already formed advanced glycosylation endproducts, a novel sandwich enzyme immunoassay was developed which detects breaking of AGE (Advanced glycosylation endproduct) moieties from AGE-crosslinked protein. The assay utilizes collagen-coated 96 will microtiter plates that are obtained commercially. AGE-modified protein (AGE-BSA) is incubated on the collagen-coated wells for four hours, is washed off the wells with PBS-Tween and the test compounds are added. Following an incubation period of 16 hours (37° C.) AGE-breaking is detected using an antibody raised against AGE-ribonuclease or with an antibody against BSA. […] Details of the assay are as follows:
1. AGE-BSA stock solutions were prepared as follows. Sodium phosphate buffer (0.4M) was prepared by dissolving 6 grams of monobasic sodium phosphate in 100 ml of distilled water, 7 grams of dibasic sodium phosphate (0.4M) in 100 ml of distilled water and adjusting the pH of the dibasic solution to 7.4 with the monobasic solution. Sodium azide (0.02 grams) was added per 100 ml volume to inhibit bacterial growth. The BSA solution was prepared as follows: 400 mg of Type V BSA (bovine serum albumin) was added for each ml of sodium phosphate buffer (above). A 400 mM glucose solution was prepared by dissolving […] of dextrose in 100 ml of sodium phosphate buffer (above). The BSA and glucose solutions were mixed 1:1 and incubated at 37° C. for 12 weeks. The pH of the incubation mixture was monitored weekly and adjusted to pH 7.4 if necessary. After 12 weeks, the AGE-BSA solution was dialyzed against PBS for 48 hours with four buffer changes, each at a 1:500 ratio of solution to dialysis buffer. Protein concentration was determined by the micro-Lowry method. The AGE-BSA stock solution was aliquoted and stored at −20° C.
2. Working solutions for crosslinking and breaking studies were prepared as follows. Test compounds were dissolved in PBS and the pH was adjusted to pH 7.4 if necessary. AGE-BSA stock solution was diluted in PBS to measure maximum crosslinking and in the inhibitor solution for testing inhibitory activity of compounds. The concentration of AGE-BSA necessary to achieve the optimum sensitivity was determined by initial titration of each lot of AGE-BSA.
3. Wash buffer (“PBS-Tween”) was prepared as follows. PBS was prepared by dissolving the following salts in one liter of distilled water: NaCl, 8 grams; KCl, 0.2 gram, KH2PO4. […] Tween-20 was added to a final concentration of 0.05% (vol/vol).
4. Substrates for detection of secondary antibody binding were prepared by diluting the HRP substrate buffer 1:10 in distilled water and mixing with ABTS chromogen 1:50 just prior to use.
1. Biocoat plates were blocked With 300 μl of “Superbloc”. Plates were blocked for one hour at room temperature and were washed with PBS-Tween three times with the Dynatech platewasher before addition of test reagents.
2. Each experiment was set up in the following manner.

[3] = test system: aortic wall protein cross-linking in diabetic rats; conditions: cited from earlier work
[4] = test system: immunoglobulin trapping in the kidney; conditions: in vivo; cited from earlier work
[5] = test system: red blood cells; conditions: in vivo; cited from earlier work
[6] = read-out: % Inhibition Anti-AGE (at mM)
[7] = read-out: % Inhibition Anti-BSA (at mM)
[8] = detection with anti-AGE-RNase antibody, read-out: IC50 (mM) Anti-AGE
[9] = detection with anti-BSA antibody, read-out: IC50 (mM) Anti-BSA

melting point: 84 to 85 °C
Structure (SMILES): CC[n+]1csc(CCO)c1C.[Br-]

melting point: 240 to 241 °C (dec.)
Structure (SMILES): O=C(C[n+]1csc2ccccc21)c1ccccc1.[Br-]

melting point: 217 to 218 °C
Structure (SMILES): COC(=O)C[n+]1csc(CCOC(C)=O)c1C.[Br-]

melting point: 233 to 234 °C
Structure (SMILES): CC(=O)OCCc1sc[n+](CC(N)=O)c1C.[Br-]

melting point: 191 to 192 °C
Structure (SMILES): COC(=O)C[n+]1ccsc1N.[Br-]

melting point: 236 to 237 °C
Structure (SMILES): COC(=O)C[n+]1c(N)sc2ccccc21.[Br-]

melting point: 209 to 210 °C
Structure (SMILES): NC(=O)C[n+]1ccsc1N.[Br-]

melting point: 234 to 235 °C
Structure (SMILES): NC(=O)C[n+]1c(N)sc2ccccc21.[Br-]

melting point: 251 to 252 °C (dec.)
Structure (SMILES): Cc1c(CCO)sc[n+]1CC(=O)c1ccc(Br)cc1 (as salt: bromide) [3-(2-[4^1-bromophenyl]-2-oxoethyl)-4-methyl-5-(2-hydroxyethyl)thiazolium bromide]

pIC50 [1]: 4.13 | inhibition at 30000 µM ([2]; at 30 mM, detection with anti-AGE-RNase antibody, read-out: % Inhibition Anti-AGE (at mM)): 75% | inhibition at 30000 µM ([2]; at 30 mM, detection with anti-BSA antibody, read-out: % Inhibition Anti-BSA (at mM)): 35% | melting point: 212 to 214 °C (dec.)
Structure (SMILES): Nc1sc2ccccc2[n+]1N [2,3-diamino-benzothiazolium mesitylenesulfonate]

Structure (SMILES): COC(=O)C[n+]1ccsc1 [3-(2-Methoxy-2-oxoethyl)thiazolium bromide]
pIC50 [1]: 3.86 | inhibition at 30000 µM [2, 6]: 38% | inhibition at 30000 µM [2, 7]: 41%

pIC50 [1]: 2.53
Structure (SMILES): Cc1sc[n+](CC(=O)c2ccc(Br)cc2)c1C [3-(2-[4^1-bromophenyl]-2-oxoethyl)-4,5-dimethylthiazolium bromide]

pIC50 [1]: 2.35
Structure (SMILES): Cc1c(CCO)sc[n+]1CC(=O)c1ccc(Br)cc1 [3-(2-[4^1-bromophenyl]-2-oxoethyl)-4-methyl-5-(2-hydroxyethyl)thiazolium bromide]

Structure (SMILES): O=C(C[n+]1ccsc1)c1ccc(Br)cc1.[Br-] [3-(2-[4^1-bromophenyl]-2-oxoethyl)-thiazolium bromide]
% Inhibition Anti-AGE (at mM) ([2]; at 30 mM, detection with anti-AGE-RNase antibody): 76% | % Inhibition Anti-BSA (at mM) ([2]; at 30 mM, detection with anti-BSA antibody): 25%

Structure (SMILES): Cc1sc[n+](CC(N)=O)c1C.[Br-] [3-(2-amino-2-oxoethyl)-4,5-dimethyl-thiazolium bromide]
pIC50 [1]: 3.47 | inhibition at 30000 µM [2, 6]: 69% | inhibition at 30000 µM [2, 7]: 75% | melting point: 147 to 148 °C

Structure (SMILES): Cc1c(CCO)sc[n+]1CC(N)=O [3-(2-amino-2-oxoethyl)-4-methyl-5-(2-hydroxyethyl)thiazolium bromide]
pIC50 [1]: 2.90 | IC50 [2, 8]: 12 µM | IC50 [2, 9]: 120 µM

Structure (SMILES): Cc1csc[n+]1CC(N)=O [3-(2-amino-2-oxoethyl)-4-methyl-thiazolium bromide]
pIC50 [1]: 3.94 | IC50 [2, 8]: 4700 µM | IC50 [2, 9]: 38600 µM

pIC50 [1]: 4.54 | melting point: 179 to 180 °C
Structure (SMILES): Cc1c[n+](CC(N)=O)cs1.[Br-] [3-(2-amino-2-oxoethyl)-5-methyl-thiazolium bromide]

Structure (SMILES): NC(=O)C[n+]1csc2ccccc21.[Br-] [3-(2-amino-2-oxoethyl)-benzothiazolium bromide]
pIC50 [1]: 3.21 | IC50 [2, 8]: 140 µM | IC50 [2, 9]: 520 µM | melting point: 222 to 223 °C

pIC50 [1]: 3.65 | melting point: 205 to 206 °C
Structure (SMILES): NC(=O)C[n+]1ccsc1.[Br-] [3-(2-amino-2-oxoethyl)thiazolium bromide, 3-(2-amino-2-oxoethyl)-thiazolium bromide]

Structure (SMILES): COC(=O)C[n+]1csc(C)c1C [3-(2-methoxy-2-oxoethyl)-4,5-dimethylthiazolium bromide]
pIC50 [1]: 3.86 | inhibition at 30000 µM [2, 6]: 50% | inhibition at 30000 µM [2, 7]: 30%

melting point: 137 to 138 °C
Structure (SMILES): COC(=O)C[n+]1csc(CCO)c1C.[Br-] [3-(2-methoxy-2-oxoethyl)-4-methyl-5-(2-hydroxyethyl)-thiazolium bromide]

Structure (SMILES): COC(=O)C[n+]1cscc1C.[Br-] [3-(2-methoxy-2-oxoethyl)-4-methylthiazolium bromide]
inhibition at 30000 µM [2, 6]: 54% | inhibition at 30000 µM [2, 7]: 41% | melting point: 149 to 151 °C (dec.)

Structure (SMILES): COC(=O)C[n+]1csc(C)c1.[Br-] [3-(2-methoxy-2-oxoethyl)-5-methyl-thiazolium bromide]
pIC50 [1]: 4.14 | inhibition at 30000 µM [2, 6]: 72% | inhibition at 30000 µM [2, 7]: 27% | melting point: 193 to 194 °C (dec.)

Structure (SMILES): COC(=O)C[n+]1csc2ccccc21 [3-(2-methoxy-2-oxoethyl)-benzothiazolium bromide]
IC50 [2, 8]: 1200 µM | IC50 [2, 9]: 25900 µM

Structure (SMILES): CC(=O)C[n+]1ccsc1.[Cl-] [3-(2-methyl-2-oxoethyl)thiazolium chloride]
IC50 ([2]; IC50 (mM) Anti-AGE, detection with anti-AGE-RNase antibody): 0.036 µM | IC50 ([2]; IC50 (mM) Anti-BSA, detection with anti-BSA antibody): 260 µM | melting point: 178 to 179 °C

Structure (SMILES): Cc1sc[n+](CC(=O)c2ccccc2)c1C [3-(2-phenyl-2-oxoethyl)-4,5-dimethylthiazolium bromide]
pIC50 [1]: 1.31 | inhibition at 30000 µM [2, 6]: 56%

Structure (SMILES): Cc1c(CCO)sc[n+]1CC(=O)c1ccccc1 [3-(2-phenyl-2-oxoethyl)-4-methyl-5-(2-hydroxyethyl)-thiazolium bromide]
IC50 [2, 8]: 14300 µM

Structure (SMILES): Cc1csc[n+]1CC(=O)c1ccccc1.[Br-] [3-(2-phenyl-2-oxoethyl)-4-methylthiazolium bromide]
pIC50 [1]: 1.99 | IC50 [2, 8]: 230 µM | IC50 [2, 9]: 300 µM | melting point: 218 to 220 °C (dec.)

pIC50 [1]: 1.86
Structure (SMILES): Cc1c[n+](CC(=O)c2ccccc2)cs1 [3-(2-phenyl-2-oxoethyl)-5-methyl-thiazolium bromide]

Structure (SMILES): O=C(C[n+]1ccsc1)c1ccccc1 [3-(2-phenyl-2-oxoethyl)thiazolium bromide]
IC50 [2, 8]: 20 µM | IC50 [2, 9]: 14 µM

Structure (SMILES): O=C(O)C[n+]1csc2ccccc21.[Br-] [3-(carboxymethyl)benzothiazolium bromide, 3-(carboxymethyl)-benzothiazolium bromide]
inhibition at 30000 µM [2, 6]: 63.7% | inhibition at 30000 µM [2, 7]: 17.9% | melting point: 250 °C (dec.)

IC50 [2, 8]: 420 µM | IC50 [2, 9]: 550 µM | melting point: 144 to 146 °C
Structure (SMILES): Cc1c(CCO)sc[n+]1Cc1ccccc1.[Cl-] [3-benzyl-5-(2-hydroxyethyl)-4-methyl thiazolium chloride]

Structure (SMILES): N=C(N)NN [aminoguanidine]
aortic wall protein cross-linking [3]: diminishes aortic wall protein cross-linking | immunoglobulin trapping in the kidney [4]: reduction of immunoglobulin trapping in the kidney | diabetes-induced changes in the deformability of red blood cells [5]: has been shown to prevent it in vivo

From patent publication USRE38330E1, “Preventing and reversing advanced glycosylation endproducts” (Alteon Inc., priority 1995, dated 2003)
